Laboratory results published in PubChem BioAssay AID248 (DTP/NCI, 2004).
Several values for one entry are separate records, joined by “and”; a condition that tells them apart may be missing. Identical values can stand only once. Inconclusive results and toxic doses are left out. Rule as the data show it: active = T/C of 150% or more; inactive = T/C below 125%.

Test system: L1210 leukemia ip in BDF1 mice, survival T/C
Assay: NCI In Vivo Anticancer Drug Screen. Data for tumor model L1210 Leukemia (intraperitoneal) in B6D2F1 (BDF1) mice
Conditions: endpoint: mean survival time, higher = longer survival
Summary of the method: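 Tumor was transplanted into mice, which were then dosed with test compound or vehicle alone. Survival was recorded for each group, and the treated figure was expressed relative to the control figure.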

[1] = dose: 25.0 mg/kg/injection, schedule: Q01DX009 (ip), vehicle: Klucel (hydroxypropylcellulose) (HPC)
[2] = dose: 50.0 mg/kg/injection, schedule: Q01DX009 (ip), vehicle: Klucel (hydroxypropylcellulose) (HPC)
[3] = dose: 100.0 mg/kg/injection, schedule: Q01DX001 (ip), vehicle: saline
[4] = dose: 100.0 mg/kg/injection, schedule: Q01DX009 (ip), vehicle: Klucel (hydroxypropylcellulose) (HPC)
[5] = dose: 100.0 mg/kg/injection, schedule: Q01DX009 (ip), vehicle: saline
[6] = dose: 100.0 mg/kg/injection, schedule: Q04DX003 (ip), vehicle: Klucel (hydroxypropylcellulose) (HPC)
[7] = dose: 100.0 mg/kg/injection, schedule: Q04DX003 (ip), vehicle: saline
[8] = dose: 200.0 mg/kg/injection, schedule: Q01DX001 (ip), vehicle: saline
[9] = dose: 200.0 mg/kg/injection, schedule: Q04DX003 (ip), vehicle: Klucel (hydroxypropylcellulose) (HPC)
[10] = dose: 200.0 mg/kg/injection, schedule: Q04DX003 (ip), vehicle: saline
[11] = dose: 400.0 mg/kg/injection, schedule: Q01DX001 (ip), vehicle: saline
[12] = dose: 400.0 mg/kg/injection, schedule: Q04DX003 (ip), vehicle: Klucel (hydroxypropylcellulose) (HPC)
[13] = dose: 100.0 mg/kg/injection, schedule: Q01DX009 (ip), vehicle: saline with Tween-80
[14] = dose: 200.0 mg/kg/injection, schedule: Q01DX009 (ip), vehicle: saline with Tween-80
[15] = dose: 400.0 mg/kg/injection, schedule: Q04DX003 (ip), vehicle: saline
[16] = dose: 200.0 mg/kg/injection, schedule: Q01DX009 (ip), vehicle: Klucel (hydroxypropylcellulose) (HPC)
[17] = dose: 400.0 mg/kg/injection, schedule: Q01DX009 (ip), vehicle: Klucel (hydroxypropylcellulose) (HPC)
[18] = dose: 100.0 mg/kg/injection, schedule: Q04DX002 (ip), vehicle: Klucel (hydroxypropylcellulose) (HPC)
[19] = dose: 200.0 mg/kg/injection, schedule: Q04DX002 (ip), vehicle: Klucel (hydroxypropylcellulose) (HPC)
[20] = dose: 400.0 mg/kg/injection, schedule: Q04DX002 (ip), vehicle: Klucel (hydroxypropylcellulose) (HPC)

Measured: T/C

O=C1CC2c3ccccc3C1C1C(=O)OC(=O)C21 (stereo not drawn)
inactive: [1] 94 % of control | [2] 105 % of control | [3] 102 % of control | [4] 112 % of control | [5] 96 % of control | [6] 107 % of control | [7] 100 % of control | [8] 98 % of control | [9] 100 % of control | [10] 91 % of control | [11] 93 % of control | [12] 109 % of control

CCOC(=O)NC1CCC1NC(=O)OCC (stereo not drawn)
inactive: [13] 95 % of control | [14] 98 % of control | dose: 400.0 mg/kg/injection, schedule: Q01DX009 (ip), vehicle: saline with Tween-80 91 % of control

O=C(O)CN(CC(=O)O)c1ccc(/C=C/c2ccc(N(CC(=O)O)CC(=O)O)c(S(=O)(=O)O)c2)cc1S(=O)(=O)O
inactive: [5] 100 % of control | [7] 112 % of control | dose: 200.0 mg/kg/injection, schedule: Q01DX009 (ip), vehicle: saline 105 % of control | [10] 100 % of control | dose: 400.0 mg/kg/injection, schedule: Q01DX009 (ip), vehicle: saline 103 % of control | [15] 100 % of control

C(=C\CN(Cc1ccccc1)Cc1ccccc1)/CN(Cc1ccccc1)Cc1ccccc1
inactive: [6] 90 % of control | [9] 87 % of control | [12] 87 % of control

CN(C)c1ccc(C(=O)/C=C/c2ccc([N+](=O)[O-])cc2)cc1
inactive: [4] 87 % of control | [16] 97 % of control | [17] 86 % of control

CC1(C)N=C(N)N=C(N)N1c1ccc(OCCCNC(=O)Nc2cccc(S(=O)(=O)F)c2)c(Cl)c1
inactive: dose: 50.0 mg/kg/injection, schedule: Q01DX009 (ip), vehicle: saline 114 % of control

CC(C)CN=C(N)N=C(N)N
inactive: dose: 50.0 mg/kg/injection, schedule: Q01DX009 (ip), vehicle: water 95 % of control | dose: 50.0 mg/kg/injection, schedule: Q04DX003 (ip), vehicle: water 102 % of control | dose: 100.0 mg/kg/injection, schedule: Q01DX001 (ip), vehicle: water 96 % of control | dose: 100.0 mg/kg/injection, schedule: Q01DX009 (ip), vehicle: water 97 % of control | dose: 100.0 mg/kg/injection, schedule: Q04DX003 (ip), vehicle: water 104 % of control | dose: 200.0 mg/kg/injection, schedule: Q01DX001 (ip), vehicle: water 103 % of control | dose: 200.0 mg/kg/injection, schedule: Q04DX003 (ip), vehicle: water 107 % of control

O=S(=O)(NS(=O)(=O)c1ccc(Cl)cc1)c1ccc(Cl)cc1
inactive: [2] 93 % of control | [4] 96 % of control | [6] 88 % of control | [16] 104 % of control | [9] 87 % of control

C=C(C)Cc1cnc(SCc2ccccc2)[nH]c1=O
inactive: [4] 93 % of control | [6] 97 % of control | [16] 91 % of control | [9] 103 % of control | [17] 94 % of control | [12] 104 % of control

O=C(O)C(Nc1ccc(Oc2ccc(NC(C(=O)O)c3ccccc3)cc2)cc1)c1ccccc1 (stereo not drawn)
inactive: [18] 100 % of control | [19] 100 % of control | [20] 100 % of control

COc1cc(OC)c(N=CN(C)C)cc1Cl
inactive: [1] 104 % of control | [2] 102 % of control | dose: 75.0 mg/kg/injection, schedule: Q01DX009 (ip), vehicle: Klucel (hydroxypropylcellulose) (HPC) 99 % of control and 105 % of control

Cc1cc(C(=O)O)cc(C)c1NC(=O)N(CCCl)N=O
inactive: dose: 46.0 mg/kg/injection, schedule: Q01DX001 (ip), vehicle: other 91 % of control | dose: 62.0 mg/kg/injection, schedule: Q01DX001 (ip), vehicle: other 90 % of control

CCCCOc1ccc(/C=N\N=C\c2ccc(OCCCC)cc2)cc1
inactive: [13] 90 % of control | [14] 88 % of control

Cc1cc(Cl)c(Cl)cc1NC(=O)/C=C\c1ccccc1
inactive: [4] 114 % of control | [6] 91 % of control | [16] 108 % of control | [9] 94 % of control | [17] 102 % of control | [12] 97 % of control

CC(=O)C1(C)OC(c2ccccc2)=NC1=O (stereo not drawn)
inactive: [3] 104 % of control | [8] 93 % of control | [11] 115 % of control

CN(C)C(CCc1ccccc1)C(=O)O (stereo not drawn)
inactive: dose: 100.0 mg/kg/injection, schedule: Q01DX009 (ip), vehicle: saline sonified 102 % of control | [7] 102 % of control | dose: 200.0 mg/kg/injection, schedule: Q01DX009 (ip), vehicle: saline sonified 95 % of control | [10] 109 % of control | dose: 400.0 mg/kg/injection, schedule: Q01DX009 (ip), vehicle: saline sonified 101 % of control | [15] 109 % of control

Cc1cncc2c(=O)n(-c3ccccc3)n(C)c12
inactive: [2] 93 % of control | [4] 96 % of control

CCCCCCCCNCCCCCCCC
inactive: dose: 4.62 mg/kg/injection, schedule: Q01DX009 (ip), vehicle: gum acacia 101 % of control | dose: 5.0 mg/kg/injection, schedule: Q01DX001 (ip), vehicle: other 95 % of control | dose: 9.25 mg/kg/injection, schedule: Q01DX009 (ip), vehicle: gum acacia 94 % of control | dose: 10.0 mg/kg/injection, schedule: Q01DX001 (ip), vehicle: other 95 % of control | dose: 18.5 mg/kg/injection, schedule: Q01DX009 (ip), vehicle: gum acacia 95 % of control | dose: 20.0 mg/kg/injection, schedule: Q01DX001 (ip), vehicle: other 90 % of control | dose: 37.0 mg/kg/injection, schedule: Q01DX009 (ip), vehicle: gum acacia 97 % of control | dose: 40.0 mg/kg/injection, schedule: Q01DX001 (ip), vehicle: other 93 % of control | dose: 80.0 mg/kg/injection, schedule: Q01DX001 (ip), vehicle: other 90 % of control | dose: 100.0 mg/kg/injection, schedule: Q01DX001 (ip), vehicle: other 100 % of control

COc1ccc2nc3cc(Cl)ccc3c(NC(C)CCCN(CCCl)CCCl)c2c1 (stereo not drawn)
inactive: dose: 0.25 mg/kg/injection, schedule: Q01DX009 (ip), vehicle: saline 108 % of control | dose: 0.25 mg/kg/injection, schedule: Q04DX003 (ip), vehicle: saline 115 % of control | dose: 0.5 mg/kg/injection, schedule: Q01DX009 (ip), vehicle: saline 117 % of control | dose: 0.5 mg/kg/injection, schedule: Q04DX003 (ip), vehicle: saline 100 % of control | dose: 1.0 mg/kg/injection, schedule: Q01DX009 (ip), vehicle: saline 104 % of control | dose: 1.0 mg/kg/injection, schedule: Q04DX003 (ip), vehicle: saline 109 % of control | dose: 2.0 mg/kg/injection, schedule: Q04DX003 (ip), vehicle: saline 116 % of control

CC(C)(C)C1CCC(N)CC1 (stereo not drawn)
inactive: dose: 12.5 mg/kg/injection, schedule: Q01DX001 (ip), vehicle: carboxymethylcellulose (CMC) 104 % of control | dose: 25.0 mg/kg/injection, schedule: Q01DX001 (ip), vehicle: carboxymethylcellulose (CMC) 98 % of control | dose: 50.0 mg/kg/injection, schedule: Q01DX001 (ip), vehicle: carboxymethylcellulose (CMC) 104 % of control

NC1C(=O)NC(=O)NC1=S (stereo not drawn)
inactive: dose: 29.0 mg/kg/injection, schedule: Q01DX Z (ip), vehicle: methylcellulose (MC) 100 % of control | dose: 45.0 mg/kg/injection, schedule: Q01DX Z (ip), vehicle: methylcellulose (MC) 107 % of control

CCc1c(Cl)c(C)c(Cl)c(O)c1Cl
inactive: dose: 100.0 mg/kg/injection, schedule: Q04DX003 (ip), vehicle: other 102 % of control | dose: 200.0 mg/kg/injection, schedule: Q04DX003 (ip), vehicle: other 93 % of control

CCC(=O)C(=O)Cc1cc[n+]([O-])c2ccccc12
inactive: [6] 102 % of control | [9] 97 % of control | [12] 113 % of control

CC(=O)NC(C)(C)C#N
inactive: [18] 93 % of control | [19] 96 % of control | [20] 107 % of control
